Earlier results in patent US20070003642A1 (priority 2002, published 2007).

For O=c1c(-c2ccc(O)cc2)coc2cc(O[C@@H]3O[C@H](CO)[C@@H](O)[C@H](O)[C@H]3O)ccc12 [daidzin], which solubility of daidzin (background statement) is on record?
The solubility of daidzin was “about 3.3 mg/100 ml”.

For isoflavones, which “solubility of isoflavones itself” value (stated as natural solubility, given as explanation) is on record?
Its value is “about 5 mg/L”.
